Measured values published in patent US11661426B2, “Imidazole-containing inhibitors of ALK2 kinase” (BioCryst Pharmaceuticals, Inc., priority 2017, dated 2023).
pIC50: −log10 of the molar value.

Biological target: ALK2 (Homo sapiens (Human), UniProt Q04771)
Experiment: ALK2 inhibition, LanthaScreen Eu Kinase Binding Assay (ThermoFisher Scientific / Life Technologies)
Conditions: read-out: Measured Ki (IC50) Value for Compounds: IC50
Description: Biochemical assays to measure the inhibitory effects of the compounds were performed by ThermoFisher Scientific (Life Technologies). ALK2 inhibition was tested using LanthaScreen™ Eu Kinase Binding Assay screening protocol.

Sequence of ALK2 (Q04771 21-509): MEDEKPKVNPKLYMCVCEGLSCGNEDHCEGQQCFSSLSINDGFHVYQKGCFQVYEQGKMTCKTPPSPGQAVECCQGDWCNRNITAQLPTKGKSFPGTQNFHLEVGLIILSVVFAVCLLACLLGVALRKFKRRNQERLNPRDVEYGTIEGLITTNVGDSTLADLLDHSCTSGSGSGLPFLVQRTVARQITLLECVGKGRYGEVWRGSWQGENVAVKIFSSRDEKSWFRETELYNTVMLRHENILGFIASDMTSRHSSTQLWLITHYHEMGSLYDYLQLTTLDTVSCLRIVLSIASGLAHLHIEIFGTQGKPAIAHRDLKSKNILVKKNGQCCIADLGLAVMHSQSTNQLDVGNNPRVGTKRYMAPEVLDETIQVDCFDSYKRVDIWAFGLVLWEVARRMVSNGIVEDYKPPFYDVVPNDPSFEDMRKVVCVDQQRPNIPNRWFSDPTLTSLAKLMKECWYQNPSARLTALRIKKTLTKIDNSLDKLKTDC

| Structure (SMILES) | pIC50 |
| --- | --- |
| COc1cc(-n2cnc(Nc3cc(C(=O)N4CCC[C@@H](N)C4)cc4ccoc34)c2)cc(OC)c1OC [Compound 413b, (R)-(3-aminopiperidin-1-yl)(7-((1-(3,4,5-trimethoxyphenyl)-1H-imidazol-4-yl)amino)benzofuran-5-yl)methanone] | 6.00 to 7.00 |
| COc1cc(-n2cnc(Nc3nc(N4CCC[C@H]4CO)nc4[nH]cc(C#N)c34)c2)cc(OC)c1OC [Compound 397a, (S)-2-(2-(hydroxymethyl)pyrrolidin-1-yl)-4-((1-(3,4,5-trimethoxyphenyl)-1H-imidazol-4-yl)amino)-7H-pyrrolo[2,3-d]pyrimidine-5-carbonitrile] | 6.00 to 7.00 |
| COc1cncc(-n2cnc(Nc3nc(N4CCC[C@H]4CO)c4cccn4n3)c2)c1 [Compound 228d, (S)-(1-(2-((1-(5-methoxypyridin-3-yl)-1H-imidazol-4-yl)amino)pyrrolo[2,1-f][1,2,4]triazin-4-yl)pyrrolidin-2-yl)methanol] | 6.00 to 7.00 |
| Cn1cnc(Nc2nc(N3CCC[C@@H]3CO)nn3cccc23)c1 [Compound 7a, (R)-(1-(4-(1-methyl-1H-imidazol-4-ylamino)pyrrolo[1,2-f][1,2,4]triazin-2-yl)pyrrolidin-2-yl)methanol] | < 6.00 |
| COc1cc(-n2cnc(Nc3ncc4ccccc4n3)c2)cc(OC)c1OC [Compound 198b, N-(1-(3,4,5-trimethoxyphenyl)-1H-imidazol-4-yl)quinazolin-2-amine] | 6.00 to 7.00 |
| COc1c(O)cc(-n2cnc(Nc3nc(N4CCC[C@H]4CO)nn4cccc34)c2)cc1C(=O)NCC1CC1 [Compound 267i, (S)—N-(cyclopropylmethyl)-3-hydroxy-5-(4-((2-(2-(hydroxymethyl)pyrrolidin-1-yl)pyrrolo[2,1-f][1,2,4]triazin-4-yl)amino)-1H-imidazol-1-yl)-2-methoxybenzamide] | 6.00 to 7.00 |
| NC(=O)[C@@H]1CCCN1c1nc(Nc2cn(-c3ccc4c(c3)OC(F)(F)O4)cn2)c2ccsc2n1 [Compound 431e, (S)-1-(4-((1-(2,2-difluorobenzo[d][1,3]dioxol-5-yl)-1H-imidazol-4-yl)amino)thieno[2,3-d]pyrimidin-2-yl)pyrrolidine-2-carboxamide] | < 6.00 |
| COc1cc(-n2cnc(Nc3nc(N4CCC[C@H]4C(N)=O)nc4ccccc34)c2)cc(OC)c1OC [Compound 130a, (S)-1-(4-((1-(3,4,5-trimethoxyphenyl)-1H-imidazol-4-yl)amino)quinazolin-2-yl)pyrrolidine-2-carboxamide] | > 7.00 |
| OC[C@@H]1CCCN1c1nc(Nc2cn(-c3ccnc4ccsc34)cn2)c2cccn2n1 [Compound 443e, (S)-(1-(4-((1-(thieno[3,2-b]pyridin-7-yl)-1H-imidazol-4-yl)amino)pyrrolo[2,1-f][1,2,4]triazin-2-yl)pyrrolidin-2-yl)methanol] | > 7.00 |
| COc1cc(-c2ccc(Nc3nc(N4CCC[C@H]4CO)c4ccccc4n3)nc2)cc(OC)c1OC [Compound 357d, (S)-(1-(2-((5-(3,4,5-trimethoxyphenyl)pyridin-2-yl)amino)quinazolin-4-yl)pyrrolidin-2-yl)methanol] | < 6.00 |
| COc1cc(-n2cnc(Nc3nc(N4CCC[C@H]4C(N)=O)nc4cc(CN5CCCCC5)oc34)c2)cc(OC)c1OC [Compound 315f, (S)-1-(6-(piperidin-1-ylmethyl)-4-((1-(3,4,5-trimethoxyphenyl)-1H-imidazol-4-yl)amino)furo[3,2-d]pyrimidin-2-yl)pyrrolidine-2-carboxamide] | > 7.00 |
| COc1cc(-n2cnc(Nc3nc(N4CCC[C@H]4C(N)=O)nc4cc(C)ccc34)c2)cc(OC)c1OC [Compound 392a, (S)-1-(7-methyl-4-((1-(3,4,5-trimethoxyphenyl)-1H-imidazol-4-yl)amino)quinazolin-2-yl)pyrrolidine-2-carboxamide] | > 7.00 |
| COc1cc(-n2cnc(Nc3nc(N4CCC[C@H]4C(N)=O)nn4c(C(=O)N5CCCCC5)ccc34)c2)cc(OC)c1OC [Compound 126c, (S)-1-(7-(piperidine-1-carbonyl)-4-((1-(3,4,5-trimethoxyphenyl)-1H-imidazol-4-yl)amino)pyrrolo[2,1-f][1,2,4]triazin-2-yl)pyrrolidine-2-carboxamide] | > 7.00 |
| COc1cc(-n2cnc(Nc3nc(N4CCC[C@H]4CO)nc4[nH]ncc34)c2)cc(OC)c1OC [Compound 329a, (S)-(1-(4-((1-(3,4,5-trimethoxyphenyl)-1H-imidazol-4-yl)amino)-1H-pyrazolo[3,4-d]pyrimidin-6-yl)pyrrolidin-2-yl)methanol] | > 7.00 |
| COc1cc(-n2cnc(Nc3nc(N4CCC[C@H]4CO)nc4ncccc34)c2)cc(OC)c1OC [Compound 169c, (S)-(1-(4-((1-(3,4,5-trimethoxyphenyl)-1H-imidazol-4-yl)amino)pyrido[2,3-d]pyrimidin-2-yl)pyrrolidin-2-yl)methanol] | > 7.00 |
| OC[C@@H]1CCCN1c1nc(Nc2cn(-c3ccc(OC(F)(F)F)c(Cl)c3)cn2)c2cccn2n1 [Compound 417e, (S)-(1-(4-((1-(3-chloro-4-(trifluoromethoxy)phenyl)-1H-imidazol-4-yl)amino)pyrrolo[2,1-f][1,2,4]triazin-2-yl)pyrrolidin-2-yl)methanol] | < 6.00 |
| COc1ccc(-n2cnc(Nc3nc(N4CCC[C@H]4CO)nn4cccc34)c2)cc1 [Compound 55c, (S)-(1-(4-((1-(4-methoxyphenyl)-1H-imidazol-4-yl)amino)pyrrolo[2,1-f][1,2,4]triazin-2-yl)pyrrolidin-2-yl)methanol] | > 7.00 |

Other lines, results leading:

| pIC50 | Structure (SMILES) |
| --- | --- |
| > 7.00 | COc1cc(-n2cnc(Nc3nc(N4CCC[C@H]4CO)nc4c3ncn4C)c2)cc(OC)c1OC [Compound 386c, (S)-(1-(9-methyl-6-((1-(3,4,5-trimethoxyphenyl)-1H-imidazol-4-yl)amino)-9H-purin-2-yl)pyrrolidin-2-yl)methanol] |
| > 7.00 | COc1cc(-n2cnc(Nc3nc4c(c(N5CCC[C@H]5CO)n3)CN(C(=O)[C@@H]3CCC(=O)N3)CC4)c2)cc(OC)c1OC [Compound 240a, (S)-5-(4-((S)-2-(hydroxymethyl)pyrrolidin-1-yl)-2-((1-(3,4,5-trimethoxyphenyl)-1H-imidazol-4-yl)amino)-5,6,7,8-tetrahydropyrido[4,3-d]pyrimidine-6-carbonyl)pyrrolidin-2-one] |
| > 7.00 | COc1cc(-n2cnc(Nc3nc(N4CCC[C@H]4CO)c4ccc(F)cc4n3)c2)cc(OC)c1OC [Compound 276b, (S)-(1-(7-fluoro-2-((1-(3,4,5-trimethoxyphenyl)-1H-imidazol-4-yl)amino)quinazolin-4-yl)pyrrolidin-2-yl)methanol] |
| > 7.00 | COc1cc(-n2cnc(Nc3nc(N4CCC[C@H]4C(N)=O)nc4c3CCN(Cc3ccccc3)C4)c2)cc(OC)c1OC [Compound 154a, (S)-1-(7-benzyl-4-((1-(3,4,5-trimethoxyphenyl)-1H-imidazol-4-yl)amino)-5,6,7,8-tetrahydropyrido[3,4-d]pyrimidin-2-yl)pyrrolidine-2-carboxamide] |
| > 7.00 | COc1cc(-n2cnc(Nc3nc(N4CCC(F)(F)C4)nc4ccoc34)c2)cc(OC)c1OC [Compound 260a, 2-(3,3-difluoropyrrolidin-1-yl)-N-(1-(3,4,5-trimethoxyphenyl)-1H-imidazol-4-yl)furo[3,2-d]pyrimidin-4-amine] |
| > 7.00 | COc1cc(C(=O)N(C)C)cc(-n2cnc(Nc3nc(N4CCC[C@H]4CO)nn4cccc34)c2)c1 [Compound 426c, (S)-3-(4-((2-(2-(hydroxymethyl)pyrrolidin-1-yl)pyrrolo[2,1-f][1,2,4]triazin-4-yl)amino)-1H-imidazol-1-yl)-5-methoxy-N,N-dimethylbenzamide] |
| > 7.00 | COc1cc(-n2cnc(Nc3nc(-c4ccccc4C(N)=O)nc4sccc34)c2)cc(OC)c1OC [Compound 157a, 2-(4-((1-(3,4,5-trimethoxyphenyl)-1H-imidazol-4-yl)amino)thieno[2,3-d]pyrimidin-2-yl)benzamide] |
| > 7.00 | OC[C@@H]1CCCN1c1nc(Nc2cn(-c3cccnc3)cn2)c2cccn2n1 [Compound 39c, (S)-(1-(4-((1-(pyridin-3-yl)-1H-imidazol-4-yl)amino)pyrrolo[2,1-f][1,2,4]triazin-2-yl)pyrrolidin-2-yl)methanol] |
| > 7.00 | Cc1cc2c(Nc3cn(-c4ccccc4)cn3)nc(N3CCC[C@H]3CO)nc2s1 [Compound 22c, (S)-(1-(6-methyl-4-((1-phenyl-1H-imidazol-4-yl)amino)thieno[2,3-d]pyrimidin-2-yl)pyrrolidin-2-yl)methanol] |
| > 7.00 | COc1cc(-n2cnc(Nc3nc(N4CCC[C@H]4CO)nc4c3cnn4C3CCCCO3)c2)cc(OC)c1OC (stereo partly drawn) [Compound 326c, ((2S)-1-(1-(tetrahydro-2H-pyran-2-yl)-4-((1-(3,4,5-trimethoxyphenyl)-1H-imidazol-4-yl)amino)-1H-pyrazolo[3,4-d]pyrimidin-6-yl)pyrrolidin-2-yl)methanol] |
| > 7.00 | COc1ccc(-c2ccc3c(Nc4cn(-c5cc(OC)c(OC)c(OC)c5)cn4)nc(N4CCC[C@H]4CO)nn23)cc1 [Compound 90a, (S)-(1-(7-(4-methoxyphenyl)-4-(1-(3,4,5-trimethoxyphenyl)-1H-imidazol-4-ylamino)pyrrolo[1,2-f][1,2,4]triazin-2-yl)pyrrolidin-2-yl)methanol] |
| > 7.00 | COc1cc(-n2cnc(Nc3ncc4c(n3)CN(Cc3ccccc3)CC4)c2)cc(OC)c1OC [Compound 202b, 7-benzyl-N-(1-(3,4,5-trimethoxyphenyl)-1H-imidazol-4-yl)-5,6,7,8-tetrahydropyrido[3,4-d]pyrimidin-2-amine] |
| > 7.00 | COc1cc(-n2cnc(Nc3nc4c(c(N5CCC[C@H]5CO)n3)CCCC4)c2)cc(OC)c1OC [Compound 226c, (S)-(1-(2-((1-(3,4,5-trimethoxyphenyl)-1H-imidazol-4-yl)amino)-5,6,7,8-tetrahydroquinazolin-4-yl)pyrrolidin-2-yl)methanol] |
| > 7.00 | NC(=O)c1cccc(-n2cnc(Nc3nc(N4CCC[C@H]4CO)nn4cccc34)c2)c1 [Compound 94c, (S)-3-(4-(2-(2-(hydroxymethyl)pyrrolidin-1-yl)pyrrolo[1,2-f][1,2,4]triazin-4-ylamino)-1H-imidazol-1-yl)benzamide] |
